Experimental data taken from patent US7932284B2, “Indole sulfonamide modulators of progesterone receptors” (Eli Lilly and Company, priority 2006, dated 2011).

Tests used:
[1] = target: T1, human MR (mineralocorticoid receptor) (Homo sapiens, UniProt P08235); assay: MR competition binding assay (HEK293 cell lysate); conditions: 0.25 nM 3H-aldosterone, 293-MR lysate
T1 construct: expressed in transfected cells; host or cells: HEK293
T1 sequence (P08235 1-984): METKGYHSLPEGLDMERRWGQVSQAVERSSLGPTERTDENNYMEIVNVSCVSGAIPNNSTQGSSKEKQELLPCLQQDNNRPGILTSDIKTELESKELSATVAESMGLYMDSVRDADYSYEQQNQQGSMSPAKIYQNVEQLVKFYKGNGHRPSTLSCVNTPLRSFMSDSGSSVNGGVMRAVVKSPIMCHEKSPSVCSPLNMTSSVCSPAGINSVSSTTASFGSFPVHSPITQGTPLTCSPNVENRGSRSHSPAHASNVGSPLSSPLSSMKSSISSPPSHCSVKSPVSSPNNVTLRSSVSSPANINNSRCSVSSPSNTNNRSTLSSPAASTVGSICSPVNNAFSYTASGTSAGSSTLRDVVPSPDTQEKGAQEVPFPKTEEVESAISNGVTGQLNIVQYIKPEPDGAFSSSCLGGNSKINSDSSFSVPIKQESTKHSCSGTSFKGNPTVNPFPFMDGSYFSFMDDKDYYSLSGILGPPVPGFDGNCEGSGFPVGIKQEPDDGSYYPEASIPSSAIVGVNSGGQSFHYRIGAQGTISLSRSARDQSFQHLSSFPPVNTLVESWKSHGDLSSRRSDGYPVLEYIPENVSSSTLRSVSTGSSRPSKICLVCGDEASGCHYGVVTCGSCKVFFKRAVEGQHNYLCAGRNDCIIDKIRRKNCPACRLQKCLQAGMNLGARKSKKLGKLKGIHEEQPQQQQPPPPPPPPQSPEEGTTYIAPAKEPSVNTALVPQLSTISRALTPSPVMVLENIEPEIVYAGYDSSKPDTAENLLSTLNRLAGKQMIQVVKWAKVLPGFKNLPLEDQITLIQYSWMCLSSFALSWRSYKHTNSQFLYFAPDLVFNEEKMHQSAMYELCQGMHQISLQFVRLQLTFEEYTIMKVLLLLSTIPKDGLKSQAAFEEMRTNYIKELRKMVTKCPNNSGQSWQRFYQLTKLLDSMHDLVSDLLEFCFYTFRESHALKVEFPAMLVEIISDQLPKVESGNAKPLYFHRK
Protocol: (§1) Cell lysates from HEK293 cells overexpressing human GR (glucocorticoid receptor), AR (androgen receptor), MR (mineralocorticoid receptor) or PR (progesterone receptor) are used for competition binding assays to determine Ki values for compounds of interest. Briefly, competition binding assays are run in a buffer containing 20 mM HEPES, pH 7.6, 0.2 mM EDTA, 75 mM NaCl, 1.5 mM MgCl2, 20% glycerol, 20 mM sodium molybdate, 0.2 mM DTT, 20 ug/ml aprotinin, and 20 ug/ml leupeptin, using either 0.3 nM ^3H-dexamethasone for GR binding, 0.36 nM ^3H-methyltrienolone for AR binding, 0.25 nM ^3H-aldosterone for MR binding, or 0.29 nM ^3H-methyltrienolone for PR binding, and either 20 ug 293-GR lysate, 22 ug 293-AR lysate, 20 ug 293-MR lysate or 40 ug 293-PR lysate per well. Competing compounds are added at various concentrations in half-log increments. Non-specific binding is determined in the presence of 500 nM dexamethasone for GR binding, 500 nM aldosterone for MR binding, or 500 nM methyltrienolone for AR and PR binding. The binding reaction (140 μl) is incubated overnight at 4° C., then 70 μl of cold charcoal-dextran buffer (containing per 50 ml of assay buffer, 0.75 g of charcoal and 0.25 g of dextran) is added to each reaction. Plates are mixed 8 minutes on an orbital shaker at 4° C. Plates are then centrifuged at 3,000 rpm at 4° C. for 10 minutes. An aliquot of 120 μl of the mixture is transferred to another 96-well plate and 175 μl of Wallac Optiphase “Hisafe 3” scintillation fluid is added to each well. Plates are sealed and shaken vigorously on an orbital shaker. After an incubation of 2 hrs, plates are read in a Wallac Microbeta counter. […] The Kd for ^3H-dexamethasone for GR binding, ^3H-methyltrienolone for AR binding, ^3H-aldosterone for MR binding, or ^3H-methyltrienolone for PR binding, is determined by saturation binding. The IC50 values for compounds are converted to Ki using Cheng-Prusoff equation and the Kd determined by saturation binding assay.

[2] = target: T2, human PR (progesterone receptor) (Homo sapiens, UniProt P06401); assay: PR competition binding assay (HEK293 cell lysate); conditions: 0.29 nM 3H-methyltrienolone, 293-PR lysate
T2 construct: expressed in transfected cells; host or cells: HEK293
T2 sequence (P06401 1-933): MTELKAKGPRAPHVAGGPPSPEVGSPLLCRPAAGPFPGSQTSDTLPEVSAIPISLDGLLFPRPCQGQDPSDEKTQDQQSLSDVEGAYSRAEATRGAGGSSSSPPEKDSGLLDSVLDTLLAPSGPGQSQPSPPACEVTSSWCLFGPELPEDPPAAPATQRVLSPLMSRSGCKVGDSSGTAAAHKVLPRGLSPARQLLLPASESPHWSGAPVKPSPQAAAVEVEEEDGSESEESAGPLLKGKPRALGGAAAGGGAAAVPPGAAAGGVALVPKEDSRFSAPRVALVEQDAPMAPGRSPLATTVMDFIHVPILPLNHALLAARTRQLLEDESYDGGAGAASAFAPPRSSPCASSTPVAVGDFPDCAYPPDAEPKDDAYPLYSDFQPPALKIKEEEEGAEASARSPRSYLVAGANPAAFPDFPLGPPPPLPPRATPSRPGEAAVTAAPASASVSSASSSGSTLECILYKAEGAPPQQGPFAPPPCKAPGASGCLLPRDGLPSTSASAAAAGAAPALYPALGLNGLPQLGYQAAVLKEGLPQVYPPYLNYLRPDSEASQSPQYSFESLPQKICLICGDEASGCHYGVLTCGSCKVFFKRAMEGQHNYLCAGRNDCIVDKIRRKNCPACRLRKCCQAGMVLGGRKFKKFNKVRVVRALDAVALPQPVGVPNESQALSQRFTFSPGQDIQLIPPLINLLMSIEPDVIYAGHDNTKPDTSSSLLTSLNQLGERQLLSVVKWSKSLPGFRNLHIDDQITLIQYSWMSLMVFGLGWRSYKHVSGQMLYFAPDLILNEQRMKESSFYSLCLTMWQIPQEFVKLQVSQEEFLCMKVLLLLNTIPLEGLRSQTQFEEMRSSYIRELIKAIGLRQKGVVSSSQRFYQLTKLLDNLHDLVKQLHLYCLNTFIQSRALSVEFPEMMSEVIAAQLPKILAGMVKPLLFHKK
Protocol: as §1
More preferably the compounds of the present invention have PR binding value K; of <10 nM.

Ki [1] [nM]	Ki [2] [nM]	SMILES
500 to 1000	< 50	CC(C)n1cc(-c2ccc(C#N)c(F)c2)c2ccc(NS(C)(=O)=O)cc21 [Example 38, N-[3-(4-Cyano-3-fluoro-phenyl)-1-isopropyl-1H-indol-6-yl]-methanesulfonamide]
> 1000	< 50	Cn1cc(-c2ccc(C#N)cc2)c2ccc(NS(C)(=O)=O)cc21 [Example 25, N-[3-(4-Cyano-phenyl)-1-methyl-1H-indol-6-yl]-methanesulfonamide]
> 1000	< 50	CS(=O)(=O)Nc1ccc2c(-c3ccc(C#N)cc3)cn(C3CCCC3)c2c1 [Example 63, N-[3-(4-Cyano-phenyl)-1-cyclopentyl-1H-indol-6-yl]-methanesulfonamide]
> 1000	< 50	CC(C)n1cc(-c2ccc(C#N)cc2)c2ccc(NS(=O)(=O)C(F)(F)F)cc21 [Example 98, N-[3-(4-Cyano-phenyl)-1-isopropyl-1H-indol-6-yl]-C,C,C-trifluoro-methanesulfonamide]
500 to 1000	< 50	CC(C)n1cc(-c2ccc(C=NO)cc2)c2ccc(NS(C)(=O)=O)cc21 [Example 94, N-{3-[4-(Hydroxyimino-methyl)-phenyl]-1-isopropyl-1H-indol-6-yl}-methanesulfonamide]
